Data from patent publication US11407767B2, “Heterocyclyl substituted pyrrolopyridines that are inhibitors of the CDK12 kinase” (The University of Nottingham, priority 2017, dated 2022).

Molecular target: CDK12/CycK (Homo sapiens, UniProt Q9NYV4)
Experiment: Inhibition of CDK12 (ADP-Glo kinase assay)
Format: biochemical
Details: 60 nM CDK12/CycK, 30 minutes pre-incubation, 1 μM ATP, 0.5 μM RBER-IRStide substrate, 1 h at 25° C., read-out: CDK12/cyclin K IC50
Protocol: Assay buffer comprised 50 mM HEPES pH 7.5, 1 mM DTT, 20 mM MgCl2, 3 mM MnCl2, 3 μM Na3VO4 and 50 μg/ml PEG8000. Kinase reactions were carried out in 384-well Optiplates™ (PerkinElmer 6007299). Test compounds were dissolved & diluted in dimethyl sulfoxide (DMSO) and cross diluted into assay buffer with a final DMSO concentration of 1% (v/v) in the assay. Test compounds (or 1% DMSO in control and blank wells) were pre-incubated with 60 nM CDK12/CycK for 30 minutes. After this time 1 μM Adenosine-5′-triphosphate (ATP) and 0.5 μM RBER-IRStide substrate (ProQinase 0863-0000-1) were added to commence the kinase reaction. Incubations were carried out for 1 h at 25° C. with kinase activity determined using the ADP-Glo™ reagent from Promega according to the manufacturer's instructions. Light generated is proportional to kinase activity and measured using a luminometer (EnVision, PerkinElmer). The signal obtained in the blank wells (containing no kinase) was subtracted from all other wells and IC50 values were determined by fitting a sigmoidal curve to % inhibition of control versus Log10 compound concentration.

CDK12/CycK, sequence (Q9NYV4 whole entry): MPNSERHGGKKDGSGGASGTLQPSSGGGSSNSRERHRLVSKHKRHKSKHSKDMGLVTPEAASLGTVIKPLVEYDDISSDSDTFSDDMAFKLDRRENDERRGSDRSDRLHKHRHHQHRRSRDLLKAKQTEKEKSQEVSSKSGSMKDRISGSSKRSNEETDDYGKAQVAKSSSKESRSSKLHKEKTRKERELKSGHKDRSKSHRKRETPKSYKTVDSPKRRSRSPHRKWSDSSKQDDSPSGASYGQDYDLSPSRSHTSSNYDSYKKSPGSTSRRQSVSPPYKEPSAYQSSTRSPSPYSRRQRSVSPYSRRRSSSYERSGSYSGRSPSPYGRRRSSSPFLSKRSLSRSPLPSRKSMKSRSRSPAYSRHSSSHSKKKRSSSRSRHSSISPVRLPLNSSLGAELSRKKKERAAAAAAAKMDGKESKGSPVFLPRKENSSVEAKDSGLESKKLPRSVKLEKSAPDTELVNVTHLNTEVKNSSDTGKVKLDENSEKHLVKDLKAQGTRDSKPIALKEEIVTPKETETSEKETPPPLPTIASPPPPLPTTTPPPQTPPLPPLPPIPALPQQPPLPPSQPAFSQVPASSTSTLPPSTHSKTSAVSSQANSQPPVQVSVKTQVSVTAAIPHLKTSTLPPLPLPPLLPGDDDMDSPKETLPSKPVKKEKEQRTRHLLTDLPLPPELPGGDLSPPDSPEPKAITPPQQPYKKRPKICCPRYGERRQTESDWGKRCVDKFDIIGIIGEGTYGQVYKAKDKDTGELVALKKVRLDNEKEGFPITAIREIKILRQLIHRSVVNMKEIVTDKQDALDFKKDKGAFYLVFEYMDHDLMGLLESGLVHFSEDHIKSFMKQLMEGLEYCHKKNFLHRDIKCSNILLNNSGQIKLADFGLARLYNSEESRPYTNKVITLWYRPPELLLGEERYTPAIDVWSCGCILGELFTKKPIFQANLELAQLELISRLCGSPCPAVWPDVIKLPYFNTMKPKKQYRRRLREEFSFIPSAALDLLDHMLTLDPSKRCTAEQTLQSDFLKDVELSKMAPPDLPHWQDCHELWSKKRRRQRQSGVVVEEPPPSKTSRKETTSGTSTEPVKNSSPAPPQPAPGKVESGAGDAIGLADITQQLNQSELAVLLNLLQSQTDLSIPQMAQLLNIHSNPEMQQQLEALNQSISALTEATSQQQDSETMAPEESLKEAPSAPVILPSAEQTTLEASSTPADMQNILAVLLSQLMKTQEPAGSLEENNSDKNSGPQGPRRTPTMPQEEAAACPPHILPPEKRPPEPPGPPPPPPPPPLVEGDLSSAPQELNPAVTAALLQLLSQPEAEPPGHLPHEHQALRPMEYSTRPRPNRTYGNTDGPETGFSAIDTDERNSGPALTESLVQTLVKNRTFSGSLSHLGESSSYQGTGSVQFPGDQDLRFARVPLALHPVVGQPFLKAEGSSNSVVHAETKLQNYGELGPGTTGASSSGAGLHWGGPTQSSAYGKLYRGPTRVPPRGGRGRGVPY
CDK12/CycK, sequence (O75909 whole entry partner): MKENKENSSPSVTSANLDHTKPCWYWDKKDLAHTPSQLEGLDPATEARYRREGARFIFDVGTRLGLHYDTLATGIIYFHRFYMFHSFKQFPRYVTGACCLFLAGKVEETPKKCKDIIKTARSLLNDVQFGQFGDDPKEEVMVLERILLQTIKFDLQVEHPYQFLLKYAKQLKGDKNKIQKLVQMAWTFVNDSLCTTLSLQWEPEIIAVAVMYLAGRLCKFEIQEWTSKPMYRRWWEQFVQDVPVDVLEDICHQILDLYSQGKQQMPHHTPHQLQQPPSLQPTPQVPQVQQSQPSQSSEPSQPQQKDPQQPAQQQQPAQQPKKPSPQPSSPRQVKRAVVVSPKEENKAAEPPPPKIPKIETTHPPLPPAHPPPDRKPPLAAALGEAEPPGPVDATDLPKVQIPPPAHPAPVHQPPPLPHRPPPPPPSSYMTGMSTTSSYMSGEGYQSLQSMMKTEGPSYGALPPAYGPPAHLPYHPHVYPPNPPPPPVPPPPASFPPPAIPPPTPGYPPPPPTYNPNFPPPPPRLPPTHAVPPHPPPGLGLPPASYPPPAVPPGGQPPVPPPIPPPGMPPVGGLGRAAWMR

## C=CC(=O)N1CCC(C(=O)NCc2cc3c(-c4cnn5ncccc45)ccnc3[nH]2)CC1 [Example 80, 1-Acryloyl-N-((4-(pyrazolo[1,5-b]pyridazin-3-yl)-1H-pyrrolo[2,3-b]pyridin-2-yl)methyl)piperidine-4-carboxamide]
  IC50: 1000 to 30000 nM

## C=CC(=O)N[C@@H]1CC[C@@H](C(=O)NCc2cc3c(-c4cnn5ncccc45)ccnc3[nH]2)C1 [Example 59, (1R,3R)-3-Acrylamido-N-((4-(pyrazolo[1,5-b]pyridazin-3-yl)-1H-pyrrolo[2,3-b]pyridin-2-yl)methyl)cyclopentane-1-carboxamide]
  IC50: 1000 to 30000 nM

## c1ccn2ncc(-c3ccnc4[nH]ccc34)c2c1 [Example 18, 4-(Pyrazolo[1,5-a]pyridin-3-yl)-1H-pyrrolo[2,3-b]pyridine]
  IC50: 1000 to 30000 nM

## O=C(NCCc1cc2c(-c3cnn4ncccc34)ccnc2[nH]1)[C@@H]1CCCN1C(=O)/C=C/CN1CCOCC1 [Example 86, (S,E)-1-(4-Morpholinobut-2-enoyl)-N-(2-(4-(pyrazolo[1,5-b]pyridazin-3-yl)-1H-pyrrolo[2,3-b]pyridin-2-yl)ethyl)pyrrolidine-2-carboxamide]
  IC50: 1000 to 30000 nM

## CC(C)CNC(=O)c1cc2c(-c3cnn4ncccc34)ccnc2[nH]1 [Example 4, N-Isobutyl-4-(pyrazolo[1,5-b]pyridazin-3-yl)-1H-pyrrolo[2,3-b]pyridine-2-carboxamide]
  IC50: 1000 to 30000 nM

## C=CC(=O)NC1(C(=O)NCCCc2cc3c(-c4cnn5ncccc45)ccnc3[nH]2)CC1 [Example 214, 1-Acrylamido-N-(3-(4-(pyrazolo[1,5-b]pyridazin-3-yl)-1H-pyrrolo[2,3-b]pyridin-2-yl)propyl)cyclopropane-1-carboxamide]
  IC50: < 100 nM

## C=CC(=O)Nc1ccc(C(=O)N(C)Cc2cc3c(-c4cnn5ncccc45)ccnc3[nH]2)cc1 [Example 185, 4-Acrylamido-N-methyl-N-((4-(pyrazolo[1,5-b]pyridazin-3-yl)-1H-pyrrolo[2,3-b]pyridin-2-yl)methyl)benzamide]
  IC50: < 100 nM

## C=CC(=O)N1CCC[C@H](C(=O)N(C)CCc2cc3c(-c4cnn5ncccc45)ccnc3[nH]2)C1 [Example 48, (S)-1-Acryloyl-N-methyl-N-(2-(4-(pyrazolo[1,5-b]pyridazin-3-yl)-1H-pyrrolo[2,3-b]pyridin-2-yl)ethyl)piperidine-3-carboxamide]
  IC50: 100 to 1000 nM

## C=CC(=O)Nc1cccc(C(=O)NCCCc2cc3c(-c4cnn5ncccc45)ccnc3[nH]2)c1 [Example 215, 3-Acrylamido-N-(3-(4-(pyrazolo[1,5-b]pyridazin-3-yl)-1H-pyrrolo[2,3-b]pyridin-2-yl)propyl)benzamide]
  IC50: < 100 nM

## C=CC(=O)N1CCC2(CCCN(Cc3cc4c(-c5cnn6ncccc56)ccnc4[nH]3)C2)C1 (centres unmarked) [Example 198, 1-(7-((4-(Pyrazolo[1,5-b]pyridazin-3-yl)-1H-pyrrolo[2,3-b]pyridin-2-yl)methyl)-2,7-diazaspiro[4.5]decan-2-yl)prop-2-en-1-one]
  IC50: 1000 to 30000 nM

## C=CC(=O)N1CCC[C@H]1C(=O)NCCc1cc2c(-c3cnn4ncccc34)c(Cl)cnc2[nH]1 [Example 53, (S)-1-Acryloyl-N-(2-(5-chloro-4-(pyrazolo[1,5-b]pyridazin-3-yl)-1H-pyrrolo[2,3-b]pyridin-2-yl)ethyl)pyrrolidine-2-carboxamide]
  IC50: < 100 nM

## CN(C)CCNC(=O)c1cc2c(-c3cnn4ncccc34)ccnc2[nH]1 [Example 5, N-(2-(Dimethylamino)ethyl)-4-(pyrazolo[1,5-b]pyridazin-3-yl)-1H-pyrrolo[2,3-b]pyridine-2-carboxamide]
  IC50: 1000 to 30000 nM

## C=CC(=O)N1CCC(C(=O)NCCc2cc3c(-c4cnn5ncccc45)ccnc3[nH]2)CC1 [Example 77, 1-Acryloyl-N-(2-(4-(pyrazolo[1,5-b]pyridazin-3-yl)-1H-pyrrolo[2,3-b]pyridin-2-yl)ethyl)piperidine-4-carboxamide]
  IC50: 100 to 1000 nM

## C=CC(=O)N(C)c1ccc(C(=O)NCc2cc3c(-c4cnn5ncccc45)ccnc3[nH]2)cc1 [Example 190, 4-(N-Methylacrylamido)-N-((4-(pyrazolo[1,5-b]pyridazin-3-yl)-1H-pyrrolo[2,3-b]pyridin-2-yl)methyl)benzamide]
  IC50: 100 to 1000 nM

## CCC(=O)Nc1cccc(C(=O)N2CCC(c3cc4c(-c5cnn6ncccc56)ccnc4[nH]3)C2)c1 (centres unmarked) [Example 173, N-(3-(3-(4-(Pyrazolo[1,5-b]pyridazin-3-yl)-1H-pyrrolo[2,3-b]pyridin-2-yl)pyrrolidine-1-carbonyl)phenyl)propionamide]
  IC50: < 100 nM

## C=CC(=O)Nc1ccc(C(=O)N2CC[C@H](c3cc4c(-c5cnn6ncccc56)ccnc4[nH]3)C2)cc1 [Example 150]
  IC50: < 100 nM

## C=CC(=O)N1CCC[C@@H]1C(=O)N1CCC(c2cc3c(-c4cnn5ncccc45)ccnc3[nH]2)CC1 [Example 195, (R)-1-(2-(4-(4-(pPyrazolo[1,5-b]pyridazin-3-yl)-1H-pyrrolo[2,3-b]pyridin-2-yl)piperidine-1-carbonyl)pyrrolidin-1-yl)prop-2-en-1-one]
  IC50: < 100 nM

## CC(=O)N1CCO[C@H](C(=O)NCCc2cc3c(-c4cnn5ncccc45)ccnc3[nH]2)C1 (single isomer, unassigned) [Example 62]
  IC50: < 100 nM

## CN(C)CCNCc1cc2c(-c3cnn4ncccc34)ccnc2[nH]1 [Example 17, N1,N1-Dimethyl-N2-((4-(pyrazolo[1,5-b]pyridazin-3-yl)-1H-pyrrolo[2,3-b]pyridin-2-yl)methyl)ethane-1,2-diamine]
  IC50: 1000 to 30000 nM

## C=CC(=O)N[C@@H]1CC[C@@H](C(=O)NCCc2cc3c(-c4cnn5ncccc45)ccnc3[nH]2)C1 [Example 64, (1R,3R)-3-Acrylamido-N-(2-(4-(pyrazolo[1,5-b]pyridazin-3-yl)-1H-pyrrolo[2,3-b]pyridin-2-yl)ethyl)cyclopentane-1-carboxamide]
  IC50: 100 to 1000 nM

## C#CC(=O)N1CCC(C(=O)N2CCC(c3cc4c(-c5cnn6ncccc56)ccnc4[nH]3)C2)CC1 (centres unmarked) [Example 147, 1-(4-(3-(4-(Pyrazolo[1,5-b]pyridazin-3-yl)-1H-pyrrolo[2,3-b]pyridin-2-yl)pyrrolidine-1-carbonyl)piperidin-1-yl)prop-2-yn-1-one]
  IC50: < 100 nM

## C=CC(=O)NCc1cccc(C(=O)NCc2cc3c(-c4cnn5ncccc45)ccnc3[nH]2)c1 [Example 192, 3-(Acrylamidomethyl)-N-((4-(pyrazolo[1,5-b]pyridazin-3-yl)-1H-pyrrolo[2,3-b]pyridin-2-yl)methyl)benzamide]
  IC50: 1000 to 30000 nM

## C=CC(=O)N1CCC[C@@H]1C(=O)NCCc1cc2c(-c3ccnn3C)ccnc2[nH]1 [Example 52, (R)-1-Acryloyl-N-(2-(4-(1-methyl-1H-pyrazol-5-yl)-1H-pyrrolo[2,3-b]pyridin-2-yl)ethyl)pyrrolidine-2-carboxamide]
  IC50: 1000 to 30000 nM

## Clc1cnc2[nH]ccc2c1-c1cnn2ncccc12 [Example 132, 3-(5-Chloro-1H-pyrrolo[2,3-b]pyridin-4-yl)pyrazolo[1,5-b]pyridazine]
  IC50: 100 to 1000 nM

## C=CC(=O)Nc1cccc(C(=O)NCc2cc3c(-c4cnn5ncccc45)ccnc3[nH]2)c1 [Example 180, 3-Acrylamido-N-((4-(pyrazolo[1,5-b]pyridazin-3-yl)-1H-pyrrolo[2,3-b]pyridin-2-yl)methyl)benzamide]
  IC50: 100 to 1000 nM

## C=CC(=O)Nc1cncc(C(=O)N2CCC(c3cc4c(-c5cnn6ncccc56)ccnc4[nH]3)C2)c1 (centres unmarked) [Example 65, N-(5-(3-(4-(Pyrazolo[1,5-b]pyridazin-3-yl)-1H-pyrrolo[2,3-b]pyridin-2-yl)pyrrolidine-1-carbonyl)pyridin-3-yl)acrylamide]
  IC50: < 100 nM

## C=CC(=O)N1CCC[C@H]1C(=O)N(CC)CCc1cc2c(-c3cnn4ncccc34)ccnc2[nH]1 [Example 50, (S)-1-Acryloyl-N-ethyl-N-(2-(4-(pyrazolo[1,5-b]pyridazin-3-yl)-1H-pyrrolo[2,3-b]pyridin-2-yl)ethyl)pyrrolidine-2-carboxamide]
  IC50: 1000 to 30000 nM

## c1cnc2ncc(-c3ccnc4[nH]ccc34)n2c1 [Example 29, 3-(1H-Pyrrolo[2,3-b]pyridin-4-yl)imidazo[1,2-a]pyrimidine]
  IC50: 1000 to 30000 nM

## O=C(NCCc1cc2c(-c3cnn4ncccc34)ccnc2[nH]1)[C@@H]1CCCN1C(=O)CCl [Example 41, (S)-1-(2-Chloroacetyl)-N-(2-(4-(pyrazolo[1,5-b]pyridazin-3-yl)-1H-pyrrolo[2,3-b]pyridin-2-yl)ethyl)pyrrolidine-2-carboxamide]
  IC50: 100 to 1000 nM

## O=C(CCl)N1CCC(C(=O)N2CCC(c3cc4c(-c5cnn6ncccc56)ccnc4[nH]3)C2)CC1 (centres unmarked) [Example 158, 2-Chloro-1-(4-(3-(4-(pyrazolo[1,5-b]pyridazin-3-yl)-1H-pyrrolo[2,3-b]pyridin-2-yl)pyrrolidine-1-carbonyl)piperidin-1-yl)ethan-1-one]
  IC50: < 100 nM

## O=C(NCc1cc2c(-c3cnn4ncccc34)ccnc2[nH]1)C1CC1 [Example 116, N-((4-(Pyrazolo[1,5-b]pyridazin-3-yl)-1H-pyrrolo[2,3-b]pyridin-2-yl)methyl)cyclopropanecarboxamide]
  IC50: 1000 to 30000 nM

## C=CC(=O)N1CCCC[C@@H]1C(=O)NCCc1cc2c(-c3cnn4ncccc34)ccnc2[nH]1 [Example 93, (R)-1-Acryloyl-N-(2-(4-(pyrazolo[1,5-b]pyridazin-3-yl)-1H-pyrrolo[2,3-b]pyridin-2-yl)ethyl)piperidine-2-carboxamide]
  IC50: < 100 nM
